According to DBAASP:
Values after ≈ are worked out from the molar mass of the structure shown. Values belong to the molecule of their own block, whether it stands above or below them.

Key:
Test in all cases: ≥ marks a high value that may be exact or a test limit, other limits are often not marked, values filed in µg/mL are converted to µM
Nocardia asteroides = test system: Nocardia asteroides
Candida glabrata 090902 = test system: Candida glabrata 090902
[1] = test system: Enterococcus faecalis 981
[2] = test system: Staphylococcus aureus ATCC 25923
[3] = test system: Pseudomonas aeruginosa CGMCC 1.50
Staphylococcus aureus = test system: Staphylococcus aureus
Escherichia coli = test system: Escherichia coli
Candida albicans = test system: Candida albicans
Saccharomyces cerevisiae = test system: Saccharomyces cerevisiae
Serratia sp. = test system: Serratia sp.
Cryptococcus neoformans = test system: Cryptococcus neoformans
Bacillus subtilis = test system: Bacillus subtilis
Salmonella typhimurium = test system: Salmonella typhimurium
Streptococcus mutans = test system: Streptococcus mutans
Pseudomonas putida = test system: Pseudomonas putida
[4] = test system: Escherichia coli ATCC 25922
Micrococcus luteus = test system: Micrococcus luteus
[5] = test system: Pseudomonas aeruginosa ATCC 15692
[6] = test system: Candida parapsilosis ATCC 22019
[7] = test system: Klebsiella pneumoniae ATCC 700603
Shigella dysenteriae = test system: Shigella dysenteriae
[8] = test system: Pseudomonas aeruginosa CMCCB 1010
Staphylococcus aureus 37 = test system: Staphylococcus aureus 37
[9] = test system: Candida albicans ATCC 90028
[10] = test system: Candida albicans ATCC 2002
[11] = test system: Enterococcus faecalis ATCC 29212
[12] = test system: Enterobacter cloacae ATCC 13047
Staphylococcus aureus 10 = test system: Staphylococcus aureus 10
Klebsiella pneumoniae = test system: Klebsiella pneumoniae
[13] = test system: Pseudomonas aeruginosa ATCC 27853
Escherichia coli SC9253 = test system: Escherichia coli SC9253
Escherichia coli SC9251 = test system: Escherichia coli SC9251
Escherichia coli SC9252 = test system: Escherichia coli SC9252
Escherichia coli IH3080 = test system: Escherichia coli IH3080
Micrococcus luteus ML36 = test system: Micrococcus luteus ML36
Escherichia coli SM101 = test system: Escherichia coli SM101

Compound: CC[C@H](C)[C@H](NC(=O)[C@H](CC(C)C)NC(=O)CNC(=O)[C@@H](NC(=O)[C@@H](NC(=O)[C@@H](N)Cc1ccccc1)[C@@H](C)CC)[C@@H](C)O)C(=O)NCC(=O)NCC(=O)N[C@@H](CC(C)C)C(=O)N[C@@H](CCSC)C(=O)N[C@@H](CCCCN)C(=O)N[C@@H](C)C(=O)N[C@@H](CC(C)C)C(N)=O [FITGLIGGLMKAL]
MIC (Nocardia asteroides): ≥ 100 µM
MIC (Candida glabrata 090902): ≥ 400 µM
MIC [1]: ≥ 200 µM
MIC [2]: 100 µM (≈ 133 µg/mL)
MIC [3]: ≥ 400 µM

Compound: CC[C@H](C)[C@H](NC(=O)[C@H](C)NC(=O)[C@H](CC(=O)O)NC(=O)[C@H](CC(C)C)NC(=O)CNC(=O)CNC(=O)[C@H](CCCCN)NC(=O)[C@H](C)NC(=O)[C@H](Cc1ccccc1)NC(=O)[C@H](CCCCN)NC(=O)[C@H](CCCCN)NC(=O)[C@H](CC(C)C)NC(=O)CNC(=O)CNC(=O)[C@H](CC(C)C)NC(=O)[C@@H](NC(=O)[C@@H](NC(=O)[C@H](CO)NC(=O)[C@H](Cc1c[nH]c2ccccc12)NC(=O)[C@@H](NC(=O)CN)C(C)C)[C@@H](C)O)[C@@H](C)CC)C(=O)N[C@H](C(=O)N[C@@H](CC(N)=O)C(=O)N1CCC[C@H]1C(=O)N[C@@H](CCCCN)C(=O)O)C(C)C [GVWSTILGGLKKFAKGGLDAIVNPK]
MIC (Saccharomyces cerevisiae): 8 µM (≈ 20.6 µg/mL)
MIC [4]: 2.83 µM (≈ 7.27 µg/mL)
MIC (Micrococcus luteus): 0.5 µM (≈ 1.29 µg/mL)
MIC [2]: 11.3 µM (≈ 29.1 µg/mL)
MIC [5]: 16 µM (≈ 41.1 µg/mL)

Compound: NCCCC[C@H](NC(=O)[C@H](Cc1ccccc1)NC(=O)[C@H](Cc1ccccc1)NC(=O)[C@H](CCCCN)NC(=O)[C@H](Cc1ccccc1)NC(=O)[C@H](Cc1ccccc1)NC(=O)[C@@H](N)CCCCN)C(=O)N[C@@H](Cc1ccccc1)C(=O)N[C@@H](Cc1ccccc1)C(=O)O [KFFKFFKFF]
MIC (Escherichia coli SC9253): 23.3 µM (≈ 30 µg/mL)
MIC (Escherichia coli SC9251): 23.3 µM (≈ 30 µg/mL)
MIC (Escherichia coli SC9252): 23.3 µM (≈ 30 µg/mL)
MIC (Escherichia coli IH3080): ≥ 77.8 µM
MIC (Micrococcus luteus ML36): 7.78 µM (≈ 10 µg/mL)
MIC (Escherichia coli SM101): 23.3 µM (≈ 30 µg/mL)

Continued, values first:

MIC (Staphylococcus aureus): 10.7 µM (≈ 20 µg/mL)
MIC (Escherichia coli): 5.35 µM (≈ 10 µg/mL)
MIC (Candida albicans): 5.35 µM (≈ 10 µg/mL)
MIC (Saccharomyces cerevisiae): 3.21 µM (≈ 6 µg/mL)
MIC (Serratia sp.): 10.7 µM (≈ 20 µg/mL)
MIC (Cryptococcus neoformans): 3.21 µM (≈ 6 µg/mL)
MIC (Bacillus subtilis): 3.21 µM (≈ 6 µg/mL)
MIC (Salmonella typhimurium): 5.35 µM (≈ 10 µg/mL)
MIC (Streptococcus mutans): 3.21 µM (≈ 6 µg/mL)
MIC (Pseudomonas putida): 5.35 µM (≈ 10 µg/mL)
Compound: CC(C)C[C@H](NC(=O)[C@H](CCCN=C(N)N)NC(=O)[C@H](C)NC(=O)[C@H](CCCN=C(N)N)NC(=O)[C@H](CC(C)C)NC(=O)[C@H](CO)NC(=O)[C@H](CCC(=O)O)NC(=O)CNC(=O)[C@H](CCCCN)NC(=O)[C@H](CC(C)C)NC(=O)[C@H](CCCN=C(N)N)NC(=O)[C@H](CO)NC(=O)[C@@H](NC(=O)[C@H](CCCCN)NC(=O)[C@@H](NC(=O)[C@@H](NC(=O)CN)C(C)C)C(C)C)C(C)C)C(=O)O [GVVKVSRLKGESLRARL]

MIC [6]: 1.66 µM (≈ 2.5 µg/mL)
MIC [7]: 26.5 µM (≈ 40 µg/mL)
MIC (Shigella dysenteriae): 6.62 µM (≈ 10 µg/mL)
MIC [8]: 6.62 µM (≈ 10 µg/mL)
MIC (Staphylococcus aureus 37): 3.31 µM (≈ 5 µg/mL)
MIC [9]: 6.62 µM (≈ 10 µg/mL)
MIC [2]: 6.62 µM (≈ 10 µg/mL)
MIC [10]: 3.31 µM (≈ 5 µg/mL)
MIC [11]: 3.31 µM (≈ 5 µg/mL)
MIC [12]: 3.31 µM (≈ 5 µg/mL)
MIC (Staphylococcus aureus 10): 1.66 µM (≈ 2.5 µg/mL)
MIC (Klebsiella pneumoniae): 13.2 µM (≈ 20 µg/mL)
MIC [13]: 53 µM (≈ 80 µg/mL)
Compound: CC[C@H](C)[C@H](N)C(=O)N[C@@H](CC(N)=O)C(=O)N[C@@H](CC(C)C)C(=O)N[C@@H](CCCCN)C(=O)N[C@@H](C)C(=O)N[C@H](C(=O)N[C@H](C(=O)N[C@@H](C)C(=O)N[C@@H](CC(C)C)C(=O)N[C@@H](C)C(=O)N[C@@H](CCCCN)C(=O)N[C@@H](CCCCN)C(=O)N[C@@H](CC(C)C)C(=O)N[C@@H](CC(C)C)C(=O)O)[C@@H](C)O)[C@@H](C)CC [INLKAITALAKKLL]
